From patent US9149038B2, “4-amino-6-(heterocyclic)picolinates and 6-amino-2-(heterocyclic)pyrimidine-4-carboxylates and their use as herbicides” (Dow AgroSciences LLC, priority 2013, dated 2015)
Like-named read-outs stand apart in the source and are kept apart here.

Experiments:
[1] = test system: Key Broadleaf Weed and Crop Species; test: Post-Emergent Test II: postemergent herbicidal activity, visual rating after 14 d (Table 7); assay type: in vivo; details: post-emergence, 336 h; for pest or weed control at 35 g/ha: 35 g ai/ha; for pest or weed control at 70 g/ha: 70 g ai/ha; for pest or weed control at 140 g/ha: 140 g ai/ha
In short: (§1)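 Track-sprayed young seedlings (first/second true leaf) at 187 L/ha across a 2-fold rate series from the high rate down to 1/16×. Kept in greenhouse at 23-29° C day, subirrigated. Injury rated by eye after 14 d, 0 = no injury, 100 = complete kill.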

[2] = test system: Key Grass and Sedge Weeds as well as Grass Crops; test: Post-Emergent Test II: postemergent herbicidal activity, visual rating after 14 d (Table 8); assay type: in vivo; details: post-emergence, 336 h; for pest or weed control at 35 g/ha: 35 g ai/ha; for pest or weed control at 70 g/ha: 70 g ai/ha; for pest or weed control at 140 g/ha: 140 g ai/ha
In short: as §1

[3] = lambsquarters (Chenopodium album), read-out: Visual Growth Reduction (%) 14 Days After Application CHEAL
[4] = oilseed rape, canola (Brassica napus), read-out: Visual Growth Reduction (%) 14 Days After Application BRSNN
[5] = redroot pigweed (Amaranthus retroflexus), read-out: Visual Growth Reduction (%) 14 Days After Application AMARE
[6] = sunflower (Helianthus annuus), read-out: Visual Growth Reduction (%) 14 Days After Application HELAN
[7] = velvetleaf (Abutilon theophrasti), read-out: Visual Growth Reduction (%) 14 Days After Application ABUTH
[8] = wild poinsettia (Euphorbia heterophylla), read-out: Visual Growth Reduction (%) 14 Days After Application EPHHL
[9] = barnyardgrass (Echinochloa crus-galli), read-out: Visual Growth Reduction (%) 14 Days After Application ECHCG
[10] = giant foxtail (Setaria faberi), read-out: Visual Growth Reduction (%) 14 Days After Application SETFA
[11] = maize, corn (Zea mays), read-out: Visual Growth Reduction (%) 14 Days After Application ZEAMX
[12] = rice (Oryza sativa), read-out: Visual Growth Reduction (%) 14 Days After Application ORYSA
[13] = wheat, spring (Triticum aestivum), read-out: Visual Growth Reduction (%) 14 Days After Application TRZAS
[14] = yellow nutsedge (Cyperus esculentus), read-out: Visual Growth Reduction (%) 14 Days After Application CYPES

| Structure (SMILES) | pest or weed control at 35 g/ha [1, 3] [%] | pest or weed control at 70 g/ha [1, 3] [%] | pest or weed control at 140 g/ha [1, 3] [%] | pest or weed control at 35 g/ha [1, 4] [%] | pest or weed control at 70 g/ha [1, 4] [%] | pest or weed control at 140 g/ha [1, 4] [%] | pest or weed control at 35 g/ha [1, 5] [%] | pest or weed control at 70 g/ha [1, 5] [%] | pest or weed control at 140 g/ha [1, 5] [%] | pest or weed control at 35 g/ha [1, 6] [%] | pest or weed control at 70 g/ha [1, 6] [%] | pest or weed control at 140 g/ha [1, 6] [%] | pest or weed control at 35 g/ha [1, 7] [%] | pest or weed control at 70 g/ha [1, 7] [%] | pest or weed control at 140 g/ha [1, 7] [%] | pest or weed control at 35 g/ha [1, 8] [%] | pest or weed control at 70 g/ha [1, 8] [%] | pest or weed control at 140 g/ha [1, 8] [%] | pest or weed control at 35 g/ha [2, 9] [%] | pest or weed control at 70 g/ha [2, 9] [%] | also measured |
| --- | --- | --- | --- | --- | --- | --- | --- | --- | --- | --- | --- | --- | --- | --- | --- | --- | --- | --- | --- | --- | --- |
| COc1c(N)nc(-c2ccc3c(c2F)OC(F)(F)O3)nc1C(=O)O [Compound 66] | 45 to 59 | 85 to 94 | 95 to 100 | 60 to 74 | 75 to 84 | 85 to 94 | 95 to 100 | 95 to 100 | 95 to 100 | 75 to 84 | 85 to 94 | 95 to 100 | 75 to 84 | 75 to 84 | 85 to 94 | 95 to 100 | 95 to 100 | 95 to 100 | 95 to 100 | 95 to 100 | pest or weed control at 140 g/ha [2, 9]: 95 to 100%; pest or weed control at 35 g/ha [2, 10]: 75 to 84%; pest or weed control at 70 g/ha [2, 10]: 75 to 84%; pest or weed control at 140 g/ha [2, 10]: 85 to 94%; pest or weed control at 35 g/ha [2, 11]: 60 to 74%; pest or weed control at 70 g/ha [2, 11]: 60 to 74%; pest or weed control at 140 g/ha [2, 11]: 75 to 84%; pest or weed control at 35 g/ha [2, 12]: 30 to 44%; pest or weed control at 70 g/ha [2, 12]: 30 to 44%; pest or weed control at 140 g/ha [2, 12]: 30 to 44%; pest or weed control at 35 g/ha [2, 13]: 45 to 59%; pest or weed control at 70 g/ha [2, 13]: 60 to 74%; pest or weed control at 140 g/ha [2, 13]: 60 to 74%; pest or weed control at 35 g/ha [2, 14]: 0 to 29%; pest or weed control at 70 g/ha [2, 14]: 95 to 100%; pest or weed control at 140 g/ha [2, 14]: 95 to 100% |
| COC(=O)c1nc(-c2ccc3c(c2)OC(C)(C)O3)nc(N)c1OC [Compound 67] | 0 to 29 | 0 to 29 | 0 to 29 | 0 to 29 | 0 to 29 | 0 to 29 | 0 to 29 | 0 to 29 | 0 to 29 | 0 to 29 | 0 to 29 | 0 to 29 | 0 to 29 | 0 to 29 | 0 to 29 | 60 to 74 | 95 to 100 | 95 to 100 | 0 to 29 | 45 to 59 | pest or weed control at 140 g/ha [2, 9]: 75 to 84%; pest or weed control at 35 g/ha [2, 10]: 0 to 29%; pest or weed control at 70 g/ha [2, 10]: 45 to 59%; pest or weed control at 140 g/ha [2, 10]: 60 to 74%; pest or weed control at 35 g/ha [2, 11]: 0 to 29%; pest or weed control at 70 g/ha [2, 11]: 60 to 74%; pest or weed control at 140 g/ha [2, 11]: 60 to 74%; pest or weed control at 35 g/ha [2, 12]: 0 to 29%; pest or weed control at 70 g/ha [2, 12]: 0 to 29%; pest or weed control at 140 g/ha [2, 12]: 0 to 29%; pest or weed control at 35 g/ha [2, 13]: 0 to 29%; pest or weed control at 70 g/ha [2, 13]: 0 to 29%; pest or weed control at 140 g/ha [2, 13]: 0 to 29%; pest or weed control at 35 g/ha [2, 14]: 0 to 29%; pest or weed control at 70 g/ha [2, 14]: 0 to 29%; pest or weed control at 140 g/ha [2, 14]: 45 to 59% |
| COc1c(N)nc(-c2cc3c(cc2F)OC(F)(F)O3)nc1C(=O)O [Compound 68] | 0 to 29 | 0 to 29 | 0 to 29 | 0 to 29 | 0 to 29 | 0 to 29 | 0 to 29 | 0 to 29 | 0 to 29 | 30 to 44 | 45 to 59 | 60 to 74 | 0 to 29 | 0 to 29 | 0 to 29 | 75 to 84 | 95 to 100 | 95 to 100 | 60 to 74 | 60 to 74 | pest or weed control at 140 g/ha [2, 9]: 75 to 84%; pest or weed control at 35 g/ha [2, 10]: 60 to 74%; pest or weed control at 70 g/ha [2, 10]: 60 to 74%; pest or weed control at 140 g/ha [2, 10]: 60 to 74%; pest or weed control at 35 g/ha [2, 11]: 45 to 59%; pest or weed control at 70 g/ha [2, 11]: 60 to 74%; pest or weed control at 140 g/ha [2, 11]: 75 to 84%; pest or weed control at 35 g/ha [2, 12]: 0 to 29%; pest or weed control at 70 g/ha [2, 12]: 0 to 29%; pest or weed control at 140 g/ha [2, 12]: 0 to 29%; pest or weed control at 35 g/ha [2, 13]: 0 to 29%; pest or weed control at 70 g/ha [2, 13]: 45 to 59%; pest or weed control at 140 g/ha [2, 13]: 45 to 59%; pest or weed control at 35 g/ha [2, 14]: 0 to 29%; pest or weed control at 70 g/ha [2, 14]: 0 to 29%; pest or weed control at 140 g/ha [2, 14]: 0 to 29% |
